According to PubChem BioAssay (NCI):
“And” between values parts separate entries of the source, which are not always exact repeats. Equal entries are not always repeated.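 Method: 48-hour compound exposure of cells in 96-well plates, five concentrations, linear interpolation of endpoints. Here, GI50 denotes the concentration required for 50% inhibition of growth. TGI marks complete inhibition of growth.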

How the values were obtained:
Assay in all cases: DTP human tumour cell line panel, 48 h
[1] = test system: MDA-MB-231 breast
[2] = test system: NCI/ADR-RES ovarian
[3] = test system: PC-3 prostate
[4] = test system: DMS 114 small cell lung
[5] = test system: DMS 273 small cell lung
[6] = test system: HOP-18 NSCLC
[7] = test system: KM20L2 colon
[8] = test system: M19-MEL melanoma
[9] = test system: XF 498 CNS
[10] = test system: SNB-78 CNS

Compound	TGI [1]	TGI [2]	TGI [3]	TGI [4] [µM]	TGI [5] [µM]	TGI [7] [µM]	TGI [8] [µM]	GI50 [1] [µM]	GI50 [2] [µM]	GI50 [3] [µM]	TGI [10] [µM]	further results
O=C(O)c1c[nH]c2c(ccc3[nH]cc(C(=O)O)c(=O)c32)c1=O	> 100 µM	> 100 µM	> 100 µM									
O=C(O)c1ccccc1C1c2ccc(Cl)cc2Oc2cc(Cl)ccc21				> 100	> 100	> 100	> 100					TGI [6]: > 100 µM
O=C(NCCCl)NCc1ccccc1	> 100 µM	> 100 µM	> 100 µM									
CCN(CC)CC(O)c1cc(-c2ccc(Cl)cc2)nc2cc(Cl)ccc12 (configuration not stated)	3.9 µM	6.04 µM	5.98 µM					1.4	2.25	2.08		
COc1cccc(/C=C2\CCc3ccccc3C2=O)c1	87.6 µM	48.8 µM	65.1 µM					22.8	10.1	16.3		
Clc1ccc(Nc2ncnc3c2sc2ncccc23)c(Cl)c1	> 100 µM	> 100 µM	> 100 µM					> 100	0.0139	2.72		
C=C1CCC2(C(C)=O)COC1(C)O2 (configuration not stated)				> 100	> 100		> 100					TGI [6]: > 100 µM; TGI [9]: > 100 µM
COc1ccc(Nc2ncccc2C(=O)NCc2cn(Cc3cccc(Oc4ccccc4)c3)nn2)c(OC)c1	> 28.1 µM	35.5 µM	> 100 µM					3.63	2.12	1.36		
CCC1OC(=O)CC(O)C(C)C(OC2OC(C)CC(N(C)C)C2O)C(CC=O)CC(C)C(=O)/C=C/C2(C)OC2C1C (configuration not stated)	53.8 µM	86.7 µM	> 100 µM									
COc1ccc(/C=C/C(=O)c2ccccc2)cc1OC	38.1 µM and 52.6 µM	> 100 µM and 93.1 µM	25.1 µM and 82 µM						8.33	23.2		
Cc1cc2c(C)nn(Cc3ccccc3Cl)c2c(C#N)c1C					> 100	> 100	> 100					TGI [6]: > 100 µM; TGI [9]: > 100 µM
C/C(CC(=O)Nc1ccc([N+](=O)[O-])cc1)=N\Nc1ccc([N+](=O)[O-])cc1[N+](=O)[O-]				> 100	> 100	> 100	> 100				> 100	TGI [9]: > 100 µM
Cc1cc2nc3c4cc([N+](=O)[O-])ccc4n(CCN(C)C)c3nc2cc1C	> 32.7 µM	4.6 µM	10.7 µM					0.602	0.382	0.548		
COc1ccc2c(c1)C(=O)c1c-2c(OCCN2CCCCC2)nc2ccc(OC)cc12	15.3 µM	10.3 µM	21.3 µM					2.71	0.761	2.33		
COc1cc(/C=C2\CC3C4CCC5=CC(=O)CC[C@]5(C)C4CC[C@]3(C)C2=O)ccc1OCCN1CCCCC1 (some centres not stated)	5.03 µM	> 100 µM	12.8 µM					1.85	4.62	2.33		
CCCCCCn1c2c(c3c(O)cccc31)C(=O)c1ccccc1-2	33.4 µM	33 µM	36.6 µM					16.3	18	19.6		
c1cnc2nc3n(c2c1)CSC3				> 100		> 100	> 100				> 100	TGI [9]: > 100 µM
O=C(O)CCCc1cc2c(s1)-c1cccc3cccc-2c13					> 100	> 100					94.9	TGI [9]: > 100 µM
Cn1c(=O)c(-c2c(Cl)cccc2Cl)cc2cnc(Nc3ccc(I)cc3)nc21	1.29 µM	0.225 µM	> 100 µM					0.259		< 0.012		
Nc1nc(Cl)nc2c1ncn2C1OC(CO)C(O)C1O (configuration not stated)	> 100 µM	> 100 µM	> 100 µM					> 100	0.579	> 100		
NC(CSC1(c2ccc(Cl)cc2)c2ccccc2-c2ccccc21)C(=O)O (configuration not stated)	35.7 µM	> 100 µM	43.5 µM									

Compound	TGI [1]	TGI [2]	TGI [3]	TGI [4] [µM]	TGI [5] [µM]	TGI [7] [µM]	TGI [8] [µM]	GI50 [1] [µM]	GI50 [2] [µM]	GI50 [3] [µM]	TGI [10] [µM]	further results
C=CCCCC(O)c1ccc(C(O)c2cnc3ccccc3c2)o1 (configuration not stated)	69.9 µM	36.9 µM	> 100 µM					27	15.2	32.6		
O=C1CCCCCCCCCCOC(=O)CCCCCCCCCCO1				> 100	> 100		> 100				> 100	TGI [6]: > 100 µM
CC(=O)Nc1ccc(Cc2ccc3[nH]c(=O)cc(C)c3c2)cc1	> 100 µM	> 100 µM	> 100 µM									
C=C(C)C1CCC2(C(=O)O)CCC3(C)C(CCC4C5(C)CCC(O)C(C)(C)C5CCC43C)C12 (configuration not stated)	10.7 µM	31.5 µM	23.8 µM									
CCOC(=O)CP(=S)(S)c1ccccc1 (configuration not stated)				> 100	> 100	> 100	> 100				> 100	TGI [9]: > 100 µM
C[C@H]1CCC2C(CN3CCCCC3)C(=O)OC2[C@]2(C)C(=O)CC(N3CCCCC3)C12O (some centres not stated)				13.1	23.4		23.9				> 100	TGI [6]: 48.4 µM
COc1cc(OC)c(/C=C/C(=O)c2c(O)cc(OC)c(C3CCN(C)CC3)c2OC)c(OC)c1			2.86 µM							1.5		
COC(=O)c1cc2c(nc1C)-c1ccccc1OS2(=O)=O				> 100	> 100	> 100	> 100				> 100	TGI [9]: > 100 µM
O=C(NC(Cc1ccccc1)C(=O)CCl)OCc1ccccc1 (configuration not stated)	20.7 µM	53.7 µM	20.3 µM	4.66	16.4	20.2	27.3	7.02	6	6.13	50	TGI [6]: 24 µM
COC(=O)CC1NC(=O)C1C(C)(OC)OC (configuration not stated)				> 100	> 100	> 100	> 100					TGI [9]: > 100 µM
O=C(CC(=O)N1N=C(c2ccccc2)C(N=Nc2ccccc2Cl)C1=O)Nc1ccccc1Cl (configuration not stated)				> 100	> 100	> 100	> 100				> 100	TGI [9]: 51.1 µM
CNC(=O)c1cc(Oc2ccc3nc(NC(=O)Nc4cc(C(F)(F)F)cc(C(F)(F)F)c4)sc3c2)ccn1	2.62 µM		2.29 µM					0.829		0.611		
COc1ccc2c(c1)CC1N(C)CCC13CCCCC23 (configuration not stated)	> 100 µM	> 100 µM	> 100 µM									
Cc1cc(N(CCC#N)CCC#N)ccc1CC1N=C(c2ccccc2)OC1=O (configuration not stated)				> 100	> 100	> 100	> 100					TGI [9]: > 100 µM
Cc1ccnc(NC(c2ccccc2)c2ccc3cccnc3c2O)c1 (configuration not stated)	97.1 µM	14.9 µM	> 100 µM					5.65	2.47	5.94		
CSCC(COC(C)=O)(CSC)c1ccncc1				> 100	> 100	> 100	> 100				> 100	
NNC(=S)NN/C=C(\C=Nc1ccccc1)[N+](=O)[O-]				> 100		> 100	> 100					TGI [9]: > 100 µM
COc1c(OC)c(OC)c(-c2cc(=O)c3c(OC)c(OC)c(OC)c(OC)c3o2)c(OC)c1OC	> 100 µM	78.9 µM										
C=C(C)[C@@H]1CC[C@]2(C(=O)N3CCN(C)CC3)CC[C@]3(C)[C@H](CC[C@@H]4[C@@]5(C)CC[C@H](O)C(C)(C)[C@@H]5CC[C@]43C)[C@@H]12	3.57 µM		3.48 µM					1.88		1.74		
O=C(c1ccccc1)c1c2n(c3c1cc(O)c1ccccc13)CCN2	4.51 µM	> 100 µM	13 µM					2.13	23.5	2.69		
COC1/C=C/OC2(C)Oc3c(C)c(O)c4c(O)c(c(C=NOC(c5ccccc5)c5ccccc5)c(O)c4c3C2=O)NC(=O)/C(C)=C/C=C/C(C)C(O)C(C)C(O)C(C)C(OC(C)=O)C1C (configuration not stated)	3.49 µM	6.19 µM	4.15 µM					1.35	1.67	1.34		

Compound	TGI [1]	TGI [2]	TGI [3]	TGI [4] [µM]	TGI [5] [µM]	TGI [7] [µM]	TGI [8] [µM]	GI50 [1] [µM]	GI50 [2] [µM]	GI50 [3] [µM]	TGI [10] [µM]	further results
[Au+].c1c[n-]cn1.c1ccc([PH+](c2ccccc2)c2ccccc2)cc1		> 100 µM	17.3 µM	1.91	> 44	58.3	11.9		32.9	4.28	> 45.2	GI50 [4]: 0.668 µM; GI50 [5]: 7.87 µM; GI50 [6]: 2.08 µM; TGI [6]: 4.35 µM; GI50 [7]: 21.9 µM; GI50 [8]: 3.4 µM; GI50 [10]: 7.57 µM
COC(=O)[C@H](C)[C@@H]1CC[C@](C)(CCC2=C(C)CCCC2(C)C)OO1	> 25 µM	> 25 µM	> 25 µM									
COc1cc2oc(-c3ccc(O)cc3)cc(=O)c2c(OC)c1O	> 100 µM	> 100 µM										
O=c1[nH]c(-c2ccc([N+](=O)[O-])cc2)nc2ccc(Cl)cc12					> 100	> 100	> 100				> 100	
CCOC(=O)Nc1cc(-c2ccc(C)c(NS(C)(=O)=O)c2)nn2c(C)nnc12	20.4 µM	> 100 µM	> 100 µM					0.807	6.26	1.36		
NCCCCCCCCCn1c2c(c3ccccc3c1=O)C(=O)c1ccccc1-2	11.1 µM	22.4 µM	29.2 µM					1.13	9.47	10.6		
CS(=O)(=O)c1ccc(-c2cnc(NCc3ccco3)n3cnnc23)cc1	> 100 µM	> 100 µM	> 100 µM					41.4	> 100	57.8		
CC(O)c1ccc(C(O)/C(=N\NC(=O)c2ccncc2)c2nc3ccc([N+](=O)[O-])cc3[nH]c2=O)cc1 (configuration not stated)				98.2	> 100	> 100	> 100				> 100	TGI [9]: > 100 µM
Cc1cc(Cl)ccc1Nc1nc2c(s1)C(=O)c1ccccc1C2=O	12.9 µM		8.05 µM	4.85	5.71	39.4	2.06				> 80.9	TGI [6]: 12.5 µM
Nc1nc(-c2ccc3ccccc3c2)cc(-c2cc(-c3ccc4ccccc4c3)nc(N)n2)n1	> 100 µM	> 100 µM	> 100 µM									
COC(=O)Cc1nn2c(nc1=O)sc1ccc3ccccc3c12						> 100	> 100					TGI [6]: > 100 µM
O=C1NC2OC(CO)C(O)C(O)C2O1 (configuration not stated)				> 100	> 100	> 100	> 100				> 100	TGI [6]: > 100 µM
CC/C(=C(/CC)c1ccc(O)cc1)c1ccc(O)cc1	25.2 µM	20.2 µM	50.9 µM					10	3.09	5.75		
CN1c2ccccc2S(=O)(=O)n2c(COc3ccccc3)nnc21	> 100 µM	> 100 µM	> 100 µM									
CCN(CC)CCNC(=O)C(Cl)=C1C(Cl)=C(Cl)C(Cl)=C1Cl	31.3 µM	> 100 µM	41.3 µM					3.83	2.98	4.23		
CCOC(=O)Cn1c(=O)[nH]c(=O)c2[nH]cnc21				> 100	> 100	> 100	> 100				> 100	TGI [6]: > 100 µM
COc1ccc(C2NC3=C(CCCC3)N2)cc1				> 100	> 100	80.8	> 100				> 100	TGI [9]: > 100 µM
Cc1ccc(S(=O)(=O)OC2CSSCC2OS(=O)(=O)c2ccc(C)cc2)cc1 (configuration not stated)				26.4	21.8	30.4	26.3				37	TGI [6]: 31.1 µM
C1C[S][Ge]2([S]CCS1)[S]CCSCC[S]2				> 100	> 100		> 100				> 100	GI50 [4]: > 100 µM; GI50 [5]: > 100 µM; GI50 [8]: > 100 µM; GI50 [10]: > 100 µM
O=[N+]([O-])c1cccc([I+]c2ccccc2)c1	33.6 µM	> 100 µM	26.1 µM					14.8	47.9	7.78		
Cc1nc2cc(Nc3nc(Nc4ccc(F)cc4)nc(N4CCCC4)n3)ccc2n1Cc1ccccc1	3.27 µM	3.94 µM	4.29 µM					1.78	1.96	1.77		
